Results as given in PubChem BioAssay AID248 (DTP/NCI, 2004).
“And” between values parts separate entries of the source, which are not always exact repeats. Equal entries are not always repeated. Inconclusive results and toxic doses are left out. Rule as the data show it: active = T/C of 150% or more; inactive = T/C below 125%.

Test system: L1210 leukemia ip in BDF1 mice, survival T/C
Experiment: NCI In Vivo Anticancer Drug Screen. Data for tumor model L1210 Leukemia (intraperitoneal) in B6D2F1 (BDF1) mice
Details: endpoint: mean survival time, higher = longer survival
Method in brief: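 Tumor was transplanted into mice, which were then dosed with test compound or vehicle alone. Survival was recorded for each group, and the treated figure was expressed relative to the control figure.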

[1] = dose: 100.0 mg/kg/injection, schedule: Q04DX003 (ip), vehicle: saline with Tween-80
[2] = dose: 200.0 mg/kg/injection, schedule: Q04DX003 (ip), vehicle: saline with Tween-80
[3] = dose: 400.0 mg/kg/injection, schedule: Q04DX003 (ip), vehicle: saline with Tween-80
[4] = dose: 100.0 mg/kg/injection, schedule: Q01DX009 (ip), vehicle: Klucel (hydroxypropylcellulose) (HPC)
[5] = dose: 200.0 mg/kg/injection, schedule: Q01DX009 (ip), vehicle: Klucel (hydroxypropylcellulose) (HPC)
[6] = dose: 100.0 mg/kg/injection, schedule: Q01DX001 (ip), vehicle: saline
[7] = dose: 50.0 mg/kg/injection, schedule: Q01DX001 (ip), vehicle: saline
[8] = dose: 200.0 mg/kg/injection, schedule: Q01DX001 (ip), vehicle: saline
[9] = dose: 400.0 mg/kg/injection, schedule: Q01DX001 (ip), vehicle: saline
[10] = dose: 100.0 mg/kg/injection, schedule: Q04DX003 (ip), vehicle: Klucel (hydroxypropylcellulose) (HPC)
[11] = dose: 200.0 mg/kg/injection, schedule: Q04DX003 (ip), vehicle: Klucel (hydroxypropylcellulose) (HPC)
[12] = dose: 400.0 mg/kg/injection, schedule: Q04DX003 (ip), vehicle: Klucel (hydroxypropylcellulose) (HPC)
[13] = dose: 100.0 mg/kg/injection, schedule: Q04DX002 (ip), vehicle: Klucel (hydroxypropylcellulose) (HPC)
[14] = dose: 200.0 mg/kg/injection, schedule: Q04DX002 (ip), vehicle: Klucel (hydroxypropylcellulose) (HPC)
[15] = dose: 400.0 mg/kg/injection, schedule: Q04DX002 (ip), vehicle: Klucel (hydroxypropylcellulose) (HPC)
[16] = dose: 100.0 mg/kg/injection, schedule: Q01DX001 (ip), vehicle: carboxymethylcellulose (CMC)
[17] = dose: 200.0 mg/kg/injection, schedule: Q01DX001 (ip), vehicle: carboxymethylcellulose (CMC)
[18] = dose: 400.0 mg/kg/injection, schedule: Q01DX001 (ip), vehicle: carboxymethylcellulose (CMC)

Measured: T/C

COc1ccc(C(=Cc2ccccc2Br)c2ccc(OC)cc2)cc1
inactive: dose: 100.0 mg/kg/injection, schedule: Q01DX009 (ip), vehicle: saline with Tween-80 102 % of control | [1] 106 % of control | dose: 200.0 mg/kg/injection, schedule: Q01DX009 (ip), vehicle: saline with Tween-80 98 % of control | [2] 98 % of control | dose: 400.0 mg/kg/injection, schedule: Q01DX009 (ip), vehicle: saline with Tween-80 93 % of control | [3] 92 % of control

CCOc1ccc(NC(=O)c2c(Br)c(Br)c(Br)c(Br)c2C(=O)O)cc1
inactive: [4] 102 % of control | [5] 87 % of control

CN(Cc1ccccc1)C(Cc1c[nH]c2ccccc12)C(=O)O (stereo unspecified)
inactive: dose: 25.0 mg/kg/injection, schedule: Q04DX003 (ip), vehicle: saline 111 % of control | dose: 50.0 mg/kg/injection, schedule: Q04DX003 (ip), vehicle: saline 108 % of control | [6] 100 % of control | dose: 100.0 mg/kg/injection, schedule: Q04DX003 (ip), vehicle: saline 94 % of control | dose: 150.0 mg/kg/injection, schedule: Q04DX003 (ip), vehicle: acetone 91 % of control | dose: 225.0 mg/kg/injection, schedule: Q04DX003 (ip), vehicle: acetone 109 % of control | dose: 335.0 mg/kg/injection, schedule: Q04DX003 (ip), vehicle: acetone 100 % of control

CC(C)=CCC(=O)OC(Cc1ccccc1)(c1ccccc1)C(C)CN(C)C (stereo unspecified)
inactive: dose: 25.0 mg/kg/injection, schedule: Q01DX009 (ip), vehicle: saline 101 % of control | dose: 50.0 mg/kg/injection, schedule: Q01DX009 (ip), vehicle: saline 98 % of control | dose: 100.0 mg/kg/injection, schedule: Q01DX009 (ip), vehicle: saline 98 % of control

Nc1ccccc1-c1ccccc1
inactive: dose: 75.0 mg/kg/injection, schedule: Q01DX001 (ip), vehicle: saline 112 % of control

O=S(=O)(CC(O)(c1ccccc1)c1ccccc1)CC(O)(c1ccccc1)c1ccccc1
inactive: [7] 93 % of control | [6] 91 % of control | [8] 93 % of control | [9] 87 % of control

N#CC(Nc1ccccc1)c1ccccc1 (stereo unspecified)
inactive: [4] 91 % of control | [10] 97 % of control | [5] 96 % of control | [11] 95 % of control | [12] 104 % of control

COc1ccc(C(=O)/C=C\c2ccc(OC)cc2O)cc1
inactive: [7] 100 % of control | [6] 103 % of control | [8] 97 % of control | [9] 103 % of control

C/C=C(\C)C#N
inactive: dose: 22.0 mg/kg/injection, schedule: Q01DX Z (ip), vehicle: saline 102 % of control | dose: 33.0 mg/kg/injection, schedule: Q01DX Z (ip), vehicle: saline 93 % of control

Cc1c(C(N)=O)no[n+]1[O-]
inactive: [13] 87 % of control | [14] 109 % of control

CCN=C(c1ccc(NC(=O)c2ccc(C(=O)Nc3ccc(C(=NCC)N(CC)C(C)=O)cc3)cc2)cc1)N(CC)C(C)=O
inactive: dose: 125.0 mg/kg/injection, schedule: Q01DX015 (ip), vehicle: methylcellulose (MC) 95 % of control | dose: 375.0 mg/kg/injection, schedule: Q01DX015 (ip), vehicle: methylcellulose (MC) 104 % of control | dose: 500.0 mg/kg/injection, schedule: Q01DX015 (ip), vehicle: methylcellulose (MC) 103 % of control

O=C(O)c1cc(Br)cc(I)c1Br
inactive: [13] 105 % of control | [14] 117 % of control | [15] 105 % of control

O=C(Nc1cc(C2=NCCN2)cc(C2=NCCN2)c1)c1ccc(C(=O)Nc2cc(C3=NCCN3)cc(C3=NCCN3)c2)cc1
inactive: dose: 0.37 mg/kg/injection, schedule: Q01DX Z (ip), vehicle: methylcellulose (MC) 94 % of control | dose: 0.75 mg/kg/injection, schedule: Q01DX Z (ip), vehicle: methylcellulose (MC) 111 % of control | dose: 1.5 mg/kg/injection, schedule: Q01DX Z (ip), vehicle: methylcellulose (MC) 101 % of control | dose: 2.0 mg/kg/injection, schedule: Q01DX Z (ip), vehicle: carboxymethylcellulose (CMC) 108 % of control | dose: 3.0 mg/kg/injection, schedule: Q01DX Z (ip), vehicle: methylcellulose (MC) 95 % of control | dose: 4.0 mg/kg/injection, schedule: Q01DX Z (ip), vehicle: carboxymethylcellulose (CMC) 92 % of control | dose: 15.0 mg/kg/injection, schedule: Q01DX Z (ip), vehicle: carboxymethylcellulose (CMC) 92 % of control

CP(C)(=S)P(C)(C)=S
inactive: dose: 25.0 mg/kg/injection, schedule: Q04DX002 (ip), vehicle: Klucel (hydroxypropylcellulose) (HPC) 98 % of control | dose: 50.0 mg/kg/injection, schedule: Q04DX002 (ip), vehicle: Klucel (hydroxypropylcellulose) (HPC) 94 % of control | [13] 95 % of control and 112 % of control

Cc1ccc(C(C)(O)CC(O)(C(F)(F)F)C(F)(F)F)cc1 (stereo unspecified)
inactive: dose: 100.0 mg/kg/injection, schedule: Q01DX001 (ip), vehicle: Klucel (hydroxypropylcellulose) (HPC) 104 % of control | [4] 99 % of control | dose: 200.0 mg/kg/injection, schedule: Q01DX001 (ip), vehicle: Klucel (hydroxypropylcellulose) (HPC) 106 % of control | [5] 99 % of control | dose: 400.0 mg/kg/injection, schedule: Q01DX001 (ip), vehicle: Klucel (hydroxypropylcellulose) (HPC) 96 % of control | dose: 400.0 mg/kg/injection, schedule: Q01DX009 (ip), vehicle: Klucel (hydroxypropylcellulose) (HPC) 98 % of control

N=C(N)c1cccc(NC(=O)Nc2cccc(C(=N)N)c2)c1
inactive: dose: 15.0 mg/kg/injection, schedule: Q01DX Z (ip), vehicle: saline 104 % of control | dose: 30.0 mg/kg/injection, schedule: Q01DX Z (ip), vehicle: saline 104 % of control

COc1c(-c2cc(C)nc(NC#N)n2)c(O)c(OC)c2occc12
inactive: [13] 109 % of control | [14] 98 % of control | [15] 98 % of control

CC(CO)(CO)N=Cc1cc(Cl)cc(Cl)c1O
inactive: dose: 50.0 mg/kg/injection, schedule: Q01DX001 (ip), vehicle: carboxymethylcellulose (CMC) 107 % of control | [16] 97 % of control | [17] 107 % of control | [18] 97 % of control

CCC(C)OC(=O)Nc1cccc(OC(=O)NC(C)C)c1 (stereo unspecified)
inactive: [1] 96 % of control | [2] 102 % of control | [3] 93 % of control

Cc1ccc(S(=O)(=O)CCCl)cc1
inactive: [10] 96 % of control | [11] 100 % of control

CC(=O)Nc1ccc(S(C)(=O)=O)cc1I
inactive: [16] 93 % of control | [17] 96 % of control | [18] 91 % of control

CCN(CCC#N)C(=S)Nc1ccc(C)c(C)c1
inactive: dose: 100.0 mg/kg/injection, schedule: Q04DX002 (ip), vehicle: saline with Tween-80 89 % of control | dose: 200.0 mg/kg/injection, schedule: Q04DX002 (ip), vehicle: saline with Tween-80 108 % of control | dose: 400.0 mg/kg/injection, schedule: Q04DX002 (ip), vehicle: saline with Tween-80 86 % of control

O=C(Nc1ccc(Cl)cc1)c1ccccc1
inactive: dose: 50.0 mg/kg/injection, schedule: Q01DX009 (ip), vehicle: Klucel (hydroxypropylcellulose) (HPC) 105 % of control | [4] 100 % of control | [10] 100 % of control | [5] 93 % of control | [11] 101 % of control | [12] 91 % of control

COC(=O)c1[nH]cnc1/N=N/Nc1ccc(Cl)c(Cl)c1
inactive: dose: 50.0 mg/kg/injection, schedule: Q01DX001 (ip), vehicle: other 94 % of control | dose: 100.0 mg/kg/injection, schedule: Q01DX001 (ip), vehicle: other 95 % of control and 103 % of control | dose: 200.0 mg/kg/injection, schedule: Q01DX001 (ip), vehicle: other 105 % of control and 110 % of control | dose: 400.0 mg/kg/injection, schedule: Q01DX001 (ip), vehicle: other 97 % of control and 100 % of control

O=C(CCCCC(=O)OCC1COCO1)OCC1COCO1 (stereo unspecified)
inactive: dose: 222.0 mg/kg/injection, schedule: Q01DX Z (ip), vehicle: methylcellulose (MC) 98 % of control | dose: 333.0 mg/kg/injection, schedule: Q01DX Z (ip), vehicle: methylcellulose (MC) 98 % of control | dose: 500.0 mg/kg/injection, schedule: Q01DX Z (ip), vehicle: methylcellulose (MC) 98 % of control
